These results are taken from patent US9636324B2, “Use of 15-benzylidence-14-deoxy-11, 12 -dehyroandrographolide derivative in manufacture of medicaments for protecting liver and anti-hepatitis C virus” (Zhengzhou University, priority 2012, dated 2017).

In series [1] the test system is mice with ConA induced liver damage. As to the kind of experiment: ConA induced immunological liver damage model in mice. The series is classed as in vivo, Kunming mice. Conditions: for protective effect against liver damage induced by ConA (summary): mice, intragastric, 3 days; for enzyme (ALT, AST) lowering effect compared to AD group: high dosage 0.88 mmol/kg vs AD 0.88 mmol/kg; for ability against liver lipid peroxidation compared with AD group: P<0.01 (B, C), P<0.05 (D). As for the experimental part:
Kunming mice of clean grade (male, weight 20±2 g, supplied by the Laboratory Animal Center, Henan Province) are randomly divided into groups with 6 mice in each group. Bifendate (Xinchang Pharmaceutical Factory of Zhejiang Pharmaceutical Co., Ltd, 200 mg/kg) is used as positive control, andrographolide (AD) is provided by Furen Pharmaceutical Group Co., Ltd, and the test compounds are synthesized by the inventors with purities higher than 99.0%. Normal control group and model group are intragastrically given 0.5% sodium carboxymethylcellulose (CMC-Na), and test groups are given 0.5% CMC-Na suspensions with AD (0.88 mmol/kg), and low dosage (0.66 mmol/kg) and high dosage (0.88 mmol/kg) of compound A, B and C, respectively. The drugs are given for 3 days. One hour after the last administration, all mice except those in the normal control group are injected with a single dose of ConA (20 mg/kg) through the caudal vein. After 8 h, the eyeball is enucleated to collect blood, which is centrifuged at 3000 rpm for 15 min to separate serum. ALT and AST are tested according to the kit specification, respectively (Nanjing Jiancheng Bioengineering Institute). The left lobe of liver is taken to prepare 10% homogenate using physiological saline, MDA is determined according to the kit specification (Nanjing Jiancheng Bioengineering Institute). To 50 μL liver homogenate is added 2 mL of 0.5 mol/L KOH-methanol solution and kept at 50° C. water bath to isomerize for 20 minutes, then absorbance (A value) is measured at 278 nm, using the A value per mL of homogenate to represent the PGE2 content. Experimental data are expressed as average±standard deviation (X±s), analyzed with SPSS 11.5 statistic software, with P<0.05 meaning significant difference.
Kunming mice of clean grade (male, weight 20±2 g) are randomly divided into normal group, model group, bifendate (Zhejiang Wanbang Pharmaceutical Co., Ltd) positive control group (200 mg/kg), AD group (0.88 mmol/kg), low dosage group (0.66 mmol/kg) and high dosage (0.88 mmol/kg) group of compound D. ALT, AST, and MDA assay kits are purchased from Nanjing Jiancheng Bioengineering Institute. Other agents, drugs and experimental methods are the same as in EXAMPLE 1.
In experimental investigation of both models, the following grouping method is used: Kunming mice of clean grade (male, weight 20±2 g) are randomly divided into normal group, model group, bifendate group (200 mg/kg), AD group (0.88 mmol/kg), low dosage group (0.66 mmol/kg) and high dosage group (0.88 mmol/kg) of compound E, with 8 mice in each group. Other agents, drugs and experimental methods are the same as in EXAMPLE 1 and in EXAMPLE 4, respectively.

For series [2], the system named is bovine viral diarrhea virus (BVDV-AV69). As to the kind of experiment: CPE observation of effects on cytopathy caused by BVDV in MDBK cells. Conditions: MDBK cells, BVDV-AV69; TC50 from MTT, IC50 from CPE. As for the experimental part: Pharmaceutical effects of drugs of the invention against cytopathy caused by inoculation of BVDV virus are investigated using MDBK (NBL-1) cells (purchased from Chinese Academy of Science's Shanghai Center for Type Culture Collection) and bovine viral diarrhea virus (BVDV-AV69) (purchased from China Institute of Veterinary Drugs Control). Ribavirin (R; Henan RunHong Pharmaceutical Co., Ltd; batch number: E0909604) is used as positive drug control. MDBK cells are prepared as a suspension (1×10^5/mL) in RPMI1640 culture medium which contains 10% in volume fetal bovine serum (Zhejiang Tianhang Biotechnology Co., Ltd; batch number: 100524), 100 μg/mL streptomycin (Shenzheng Huayao Nanfang Pharmaceutical Co., Ltd; batch number: N09081), 100 U/mL penicillin (North China Pharmaceutical Co., Ltd; batch number: E0909604), and are seeded in 96 well plates (Costar, US) at 200 μL/well, placed in an incubator (Binder, Germany) at 37° C. with 5% CO2 to culture the cell. In 24 h when cells grow into a single layer, virus solution of 100 TCID50 (TCID50=10^−2.5) is added and incubated for 1.5 h. Maintenance medium with the drug is added at 200 μL/well after 3×PBS washes.
After digestion of MDBK cells with trypsin, cells with a concentration of 1×10^5/mL are seeded into 96 well plates at 200 μL/well, placed in an incubator at 37° C. with 5% CO2 for 24 h. After growing into a single layer, cells are attacked using 100 TCID50 (TCID50=10^−2.5) virus and incubated for 1.5 h. The virus-containing maintenance medium is discarded, and cells are washed with PBS, followed by addition of drug-containing maintenance medium with different concentrations, and incubation in 5% CO2 at 37° C. Normal cell control, virus control, drug treatment and ribavirin treatment groups are set. The cytopathy developing status is recorded everyday by observing under an inverted microscope.

The subject of series [3] is mice with carbon tetrachloride induced liver damage. As to the kind of experiment: Carbon tetrachloride induced chemical liver damage model in mice. The series is classed as in vivo, Kunming mice. Conditions: for protective effect against liver damage induced by carbon tetrachloride (summary): mice, intragastric, 3 days; for ALT activity in serum vs model group / AST activity in serum vs model group: dosage groups not distinguished (0.66 and 0.88 mmol/kg); for ALT activity in serum vs model group / AST activity in serum vs model group / MDA level in liver homogenate vs model group / PGE2 level in liver homogenate vs model group: P<0.01; for MDA level in liver homogenate vs model group / PGE2 level in liver homogenate vs model group: dosage groups not distinguished; for magnitude of decrease in ALT activity compared to AD group / magnitude of decrease in AST activity compared to AD group / PGE2 content compared to AD group / ability to reduce lipid peroxide level in liver homogenate compared to AD group: P<0.05. As for the experimental part: Kunming mice of clean grade (male, weight 20±2 g), after adaptively fed for 3 days, are randomly divided into normal group, model group, bifendate positive control group (200 mg/kg), AD group (0.88 mmol/kg), low dosage group (0.66 mmol/kg) and high dosage group (0.88 mmol/kg) of compound A, B, C and D, with 8 mice in each group. Positive group and each test group are intragastrically given with respective suspension prepared with 0.5% CMC-Na, and normal group and model group are given with 0.5% CMC-Na. The drugs are given for 3 days, and 1 h after the last administration, all mice except those in the normal group are intraperitoneally injected with a single dose of 0.3% carbon tetrachloride in peanut oil (0.1 mL/10 g). After 16 h, the eyeball of the mice in each group is enucleated to collect blood, which is centrifuged at 3000 rpm for 15 min to separate serum. ALT and AST activities are tested respectively (Nanjing Jiancheng Bioengineering Institute). The left lobe of liver is taken to prepare 10% homogenate using physiological saline, MDA (Nanjing Jiancheng Bioengineering Institute) and PGE2 contents are determined. Experimental data are expressed as average±standard deviation (X±s), analyzed with SPSS 11.5 statistic software, with P<0.05 meaning there is a significant difference. Other agents, drugs and experimental methods are the same as in EXAMPLE 1. In experimental investigation of both models, the following grouping method is used: Kunming mice of clean grade (male, weight 20±2 g) are randomly divided into normal group, model group, bifendate group (200 mg/kg), AD group (0.88 mmol/kg), low dosage group (0.66 mmol/kg) and high dosage group (0.88 mmol/kg) of compound E, with 8 mice in each group. Other agents, drugs and experimental methods are the same as in EXAMPLE 1 and in EXAMPLE 4, respectively.

The test system of series [4] is mice with ethanol induced liver damage. Put plainly: Ethanol induced liver damage model in mice. The series is classed as in vivo, Kunming mice. As for the experimental part: Kunming mice of clean grade (male, weight 20±2 g), after adaptively fed for 3 days, are randomly divided into normal group, model group, bifendate positive control group (200 mg/kg), AD group (0.88 mmol/kg), low (0.44 mmol/kg), median (0.66 mmol/kg) and high (0.88 mmol/kg) dosage groups of compound A, and median (0.66 mmol/kg) and high (0.88 mmol/kg) dosage groups of compound B, with 8 mice in each group. Positive group and each test group are intragastrically given with respective suspension prepared with 0.5% CMC-Na, and normal group and model group are given with 0.5% CMC-Na. The drugs are given for 3 days, and 1 h after the last administration, all mice except those in the normal group are intragastrically administrated with a single dose of 50% EtOH ([…]). After 16 h, the eyeball of the mice in each group is enucleated to collect blood, which is centrifuged at 3000 rpm for 15 min to separate serum. ALT and AST activities are tested respectively (Nanjing Jiancheng Bioengineering Institute). The left lobe of liver is taken to prepare 10% homogenate using physiological saline, MDA (Nanjing Jiancheng Bioengineering Institute) content is determined. Experimental data are expressed as average±standard deviation (X±s), analyzed with SPSS 11.5 statistic software, with P<0.05 meaning there is a significant difference. Other agents, drugs and experimental methods are the same as in EXAMPLE 1.

Setting [5] is: high dosage 0.88 mmol/kg, P<0.01.
The mark [6] stands for this setting: high dosage 0.88 mmol/kg vs AD 0.88 mmol/kg.
Setting [7] is: low dosage 0.66 mmol/kg vs AD 0.88 mmol/kg.
Where [8] appears, read: dosage groups not distinguished, P<0.01.

Structures are written as SMILES.

For `C=C1CC[C@@H]2[C@](C)(CO)[C@H](O)CC[C@@]2(C)[C@@H]1C/C=C1/C(=O)OC[C@H]1O` [AD, andrographolide], the “MDA content in liver homogenate vs model group” value (from here on “MDA content … vs model group”) in series [1] (AD 0.88 mmol/kg, compounds at different dosages, P<0.05) is on record as “can reduce the MDA content”. Also, in series [1] (HE stain, 200x, FIG. 5), the “liver histopathologic section (HE staining)” value is “liver cells are slightly swelled and loosed, a portion of liver cells show spotted necrosis and degeneration, no focal necrosis involving massive liver cells is observed”. For the same compound, in series [1], the “protective effect against liver damage induced by ConA (summary)” value (from here on “protective effect … by ConA (summary)”) is “Obvious Protective Effect”. For the same compound, the “TI value (therapy index, TC50/IC50)” value in series [2] was determined as 14.4. In addition, the “protective effect against liver damage induced by carbon tetrachloride (summary)” value in series [3] is “Obvious Protective Effect”.
`C=C1CCC2C(C)(CO)C(O)CCC2(C)C1C=CC1=CC(=Cc2cccc(Br)c2)OC1=O` (stereo not shown) [C]: in series [1] (P<0.05), the “enzyme (ALT, AST) lowering effect compared to AD group” value is reported as “better enzyme lowering effect”. Moreover, in series [1] (setting [5]), the “MDA content … vs model group” value is “more obvious effect” and the “PGE2 content in liver homogenate vs model group” value was “notably reduce PGE2 content”. In series [1] (high dosage 0.88 mmol/kg), the “ability against liver lipid peroxidation compared with AD group” value is “stronger resistant ability against liver lipid peroxidation”. The “protective effect … by ConA (summary)” value in series [1] was “notably protective effect”. Moreover, in series [3], the “ALT activity in serum vs model group” value is recorded as “notably suppress the increase”, the “AST activity in serum vs model group” value is reported as “notably suppress the increase”, the “MDA level in liver homogenate vs model group” value is “effectively reduce” and the “PGE2 level in liver homogenate vs model group” value is on record as “effectively reduce”. For the same compound, the “protective effect against liver damage induced by carbon tetrachloride (summary)” value in series [3] is listed as “protective effect”. Besides, in series [3] (setting [6]), the “magnitude of decrease in ALT activity compared to AD group” value (“magnitude of decrease in ALT activity” below) was “significantly better” and the “magnitude of decrease in AST activity compared to AD group” value (“magnitude of decrease in AST activity” for short) is given as “significantly better”. In addition, in series [3] (high dosage 0.88 mmol/kg), the “PGE2 content compared to AD group” value was “notably lower” and the “ability to reduce lipid peroxide level in liver homogenate compared to AD group” value was “stronger ability to reduce the lipid peroxide level”. In series [3] (setting [7]), the “magnitude of decrease in ALT activity” value is “significantly better” and the “magnitude of decrease in AST activity” value is “significantly better”.
Consider `NC(=O)c1ncn([C@@H]2O[C@H](CO)[C@@H](O)[C@H]2O)n1` [Ribavirin(R), Ribavirin, reference compound], for which, in series [2], the “TI value (therapy index, TC50/IC50)” value is listed as 4.
For `C=C1CCC2C(C)(CO)C(O)CCC2(C)C1C=CC1=CC(=Cc2ccccc2)OC1=O` (stereo not shown) [B], the “enzyme (ALT, AST) lowering effect compared to AD group” value in series [1] (P<0.05) is “better enzyme lowering effect”. In series [1] (setting [5]), the “MDA content … vs model group” value is reported as “more obvious effect” and the “PGE2 content in liver homogenate vs model group” value is on record as “notably reduce PGE2 content”. Moreover, in series [1] (high dosage 0.88 mmol/kg), the “ability against liver lipid peroxidation compared with AD group” value is “stronger resistant ability against liver lipid peroxidation”. Further, in series [1], the “protective effect … by ConA (summary)” value is reported as “notably protective effect”. Further, in series [3], the “ALT activity in serum vs model group” value was “notably suppress the increase”, the “AST activity in serum vs model group” value is given as “notably suppress the increase”, the “MDA level in liver homogenate vs model group” value was “effectively reduce” and the “PGE2 level in liver homogenate vs model group” value is “effectively reduce”. In series [3], the “protective effect against liver damage induced by carbon tetrachloride (summary)” value is “protective effect”. In addition, in series [3] (setting [6]), the “magnitude of decrease in ALT activity” value was “significantly better” and the “magnitude of decrease in AST activity” value is reported as “significantly better”. In addition, in series [3] (setting [7]), the “magnitude of decrease in ALT activity” value is “significantly better” and the “magnitude of decrease in AST activity” value was “significantly better”. Also, in series [3] (low dosage 0.66 mmol/kg), the “PGE2 content compared to AD group” value is listed as “notably lower” and the “ability to reduce lipid peroxide level in liver homogenate compared to AD group” value was “stronger ability to reduce the lipid peroxide level”. Further, in series [4] (setting [8]), the “ALT activity in serum vs model group” value is “effectively suppress”, the “AST activity in serum vs model group” value is reported as “effectively suppress” and the “MDA content … vs model group” value was “effectively reduce the MDA content”. The “ALT activity decreasing magnitude compared with AD group” value in series [4] (high dosage 0.88 mmol/kg, P<0.01 (A), P<0.05 (B)) was “notably larger”. In addition, the “protective effect against liver damage induced by ethanol (summary)” value in series [4] (mice, intragastric, 3 days) was “protective effect”.
